In BindingDB's records for doi:10.1016/s0960-894x(01)00529-7 (The R. W. Johnson Pharmaceutical Research Institute, 2001) one finds IC50 data, which are given here for eleven compounds.

Molecules are shown by their SMILES. pIC50: −log10 of the molar value.

A word on the pIC50: it is the negative decadic logarithm of the IC50, by convention in mol/L. Read a low pIC50 as a high IC50.

A short description of the assay: Inhibition of thrombin-induced human gel-filtered platelet aggregation.
As for `O=C(N[C@@H](CNC(=O)C1CCCn2c(CCC3CCNCC3)nnc21)C(=O)O)OCc1ccccc1` (stereo partly specified) [2-Benzyloxycarbonylamino-3-{[3-(2-piperidin-4-yl-ethyl)-5,6,7,8-tetrahydro-[1,2,4]triazolo[4,3-a]pyridine-8-carbonyl]-amino}-propionic acid], the pIC50 is 10.17.
The result for `O=C(N[C@@H](CNC(=O)C1CCCn2c(C=CC3CCNCC3)nnc21)C(=O)O)OCc1ccccc1` (stereo partly specified) [2-Benzyloxycarbonylamino-3-{[3-(2-piperidin-4-yl-vinyl)-5,6,7,8-tetrahydro-[1,2,4]triazolo[4,3-a]pyridine-8-carbonyl]-amino}-propionic acid] reads 10.39; that for `CC1(C(=O)NC[C@H](NC(=O)OCc2ccccc2)C(=O)O)CCCn2c(CCC3CCNCC3)nnc21` (stereo partly specified) [2-Benzyloxycarbonylamino-3-{[8-methyl-3-(2-piperidin-4-yl-ethyl)-5,6,7,8-tetrahydro-[1,2,4]triazolo[4,3-a]pyridine-8-carbonyl]-amino}-propionic acid], 8.57; that for `O=C(NC[C@H](NS(=O)(=O)Cc1ccccc1)C(=O)O)C1CCCn2c(/C=C/C3CCNCC3)nnc21` (stereo partly specified) [2-Phenylmethanesulfonylamino-3-{[3-(2-piperidin-4-yl-vinyl)-5,6,7,8-tetrahydro-[1,2,4]triazolo[4,3-a]pyridine-8-carbonyl]-amino}-propionic acid], 10.37.
To `O=C(Cc1cccnc1)N[C@@H](CNC(=O)C1CCCn2c(/C=C/C3CCNCC3)nnc21)C(=O)O` (stereo partly specified) [3-{[3-(2-Piperidin-4-yl-vinyl)-5,6,7,8-tetrahydro-[1,2,4]triazolo[4,3-a]pyridine-8-carbonyl]-amino}-2-(2-pyridin-3-yl-acetylamino)-propionic acid] belongs 9.92; to `O=C(O)C[C@H](NC(=O)C1CCCn2c(CCC3CCNCC3)nnc21)c1cccnc1` (stereo partly drawn) [(S)-3-{[3-(2-Piperidin-4-yl-ethyl)-5,6,7,8-tetrahydro-[1,2,4]triazolo[4,3-a]pyridine-8-carbonyl]-amino}-3-pyridin-3-yl-propionic acid], 10.80.
As for `O=C(O)C[C@H](NC(=O)c1cccn2c(CCC3CCNCC3)nnc12)c1cccnc1` [(S)-3-{[3-(2-Piperidin-4-yl-ethyl)-[1,2,4]triazolo[4,3-a]pyridine-8-carbonyl]-amino}-3-pyridin-3-yl-propionic acid], the pIC50 is 9.43.
The result for `O=C(O)C[C@H](NC(=O)C1CCCn2c(/C=C/C3CCNCC3)nnc21)c1cccnc1` (stereo partly drawn) [(S)-3-{[3-((E)-2-Piperidin-4-yl-vinyl)-5,6,7,8-tetrahydro-[1,2,4]triazolo[4,3-a]pyridine-8-carbonyl]-amino}-3-pyridin-3-yl-propionic acid] reads 10.21; that for `O=C(O)C[C@H](NC(=O)C1CCCn2c(/C=C/C3CCNCC3)nnc21)c1cnc2ccccc2c1` (stereo partly drawn) [(S)-3-{[3-((E)-2-Piperidin-4-yl-vinyl)-5,6,7,8-tetrahydro-[1,2,4]triazolo[4,3-a]pyridine-8-carbonyl]-amino}-3-quinolin-3-yl-propionic acid], 10.24.
To `O=C(O)C[C@H](NC(=O)[C@@H]1CCCN(C(=O)CCC2CCNCC2)C1)c1cccnc1` [(S)-3-{[(R)-1-(3-Piperidin-4-yl-propionyl)-piperidine-3-carbonyl]-amino}-3-pyridin-3-yl-propionic acid] belongs 10.22.
The result for `O=C(N[C@@H](CNC(=O)[C@@H]1CCCN(C(=O)CCC2CCNCC2)C1)C(=O)O)OCc1ccccc1` [RWJ-53419] reads 10.57.
